Measurements reported in US20140024576A1, “HEPTOSE DERIVATIVES FOR USE IN THE TREATMENT OF BACTERIAL INFECTIONS” (priority 2010, published 2014).

How the values were obtained:
[1] = biological target: GmhA of E. coli (Escherichia coli, UniProt P63224); test: Inhibition of the enzymatic activity of GmhA (luminescent assay); type: biochemical
Experimental: Inhibition of the Enzymatic Activity of GmhA (Luminescent Assay):
The assay buffer “AB” contained 50 mM Hepes pH7.5, 1 mM MnCl2, 25 mM KCl, 0.012% Triton-X100 and 1 mM dithiothreitol (DTT) and 0.1 μM Myelin basic protein (MBP). The following components were added in a white polystyrene Costar plate up to a final volume of 30 μL: 10 μL inhibitor dissolved in DMSO/water 50/50, and 20 μL GmhA of E. coli in AB. After 30 min of pre-incubation at room temperature, 30 μL of Substrates mix in AB were added in each well to a final volume of 60 μL. This reaction mixture was then composed of 2 nM GmhA, 3 μM sedoheptulose-7-phosphate (Sigma), 3 μM ATP (Sigma) and 50 nM HldE of E. coli in assay buffer. After 30 min of incubation at room temperature, 100 μL of the revelation mix were added to a final volume of 160 μL, including the following constituents at the respective final concentrations: 10000 light units/ml luciferase (Sigma), 20 μM D-luciferin (Sigma), 100 μM N-acetylcysteamine (Aldrich). Luminescence intensity was immediately measured on Luminoskan (Thermofischer) and converted into inhibition percentages. For IC50 determinations, the inhibitor was tested at 6 to 10 different concentrations, and the related inhibitions were fitted to a classical langmuir equilibrium model using XLFIT (IDBS).

[2] = biological target: HldE of E. coli (HldE-K) (Escherichia coli, UniProt P76658); test: Inhibition of the enzymatic activity of HldE-K (luminescent assay on kinase activity); type: biochemical
HldE of E. coli (HldE-K), sequence (P76658 whole entry): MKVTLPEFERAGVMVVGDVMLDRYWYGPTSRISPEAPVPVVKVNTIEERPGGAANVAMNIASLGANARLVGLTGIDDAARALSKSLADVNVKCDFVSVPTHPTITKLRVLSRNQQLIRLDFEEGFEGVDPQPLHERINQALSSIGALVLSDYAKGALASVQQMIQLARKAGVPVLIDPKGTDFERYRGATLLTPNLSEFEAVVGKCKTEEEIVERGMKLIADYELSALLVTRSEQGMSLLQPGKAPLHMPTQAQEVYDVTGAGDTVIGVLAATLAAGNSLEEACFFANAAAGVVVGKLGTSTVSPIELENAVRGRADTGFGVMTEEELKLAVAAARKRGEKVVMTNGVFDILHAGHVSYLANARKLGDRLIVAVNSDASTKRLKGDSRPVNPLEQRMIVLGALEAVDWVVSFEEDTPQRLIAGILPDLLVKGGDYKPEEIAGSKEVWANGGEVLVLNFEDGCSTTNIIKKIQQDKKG
Experimental: Inhibition of the Enzymatic Activity of HldE-K (Luminescent Assay On Kinase Activity):
The assay buffer “AB” contained 50 mM Hepes pH7.5, 1 mM MnCl2, 25 mM KCl, 0.012% Triton-X100 and 1 mM dithiothreitol (DTT) and 0.1 μM Myelin basic protein (MBP). The following components were added in a white polystyrene Costar plate up to a final volume of 30 μL: 10 μL inhibitor dissolved in DMSO/water 50/50, and 20 μL HldE of E. coli in AB. After 30 min of pre-incubation at room temperature, 30 μL of Substrates mix in AB were added in each well to a final volume of 60 μL. This reaction mixture was then composed of 3 nM HldE, 0.2 μM β-heptose-7-phosphate (custom synthesis) and 0.2 μM ATP (Sigma) in assay buffer. After 30 min of incubation at room temperature, 200 μL of the revelation mix were added to a final volume of 260 µL, including the following constituents at the respective final concentrations: 5000 light units/ml luciferase (Sigma), 30 μM D-luciferin (Sigma), 100 μM N-acetylcysteamine (Aldrich). Luminescence intensity was immediately measured on Luminoskan (Thermofischer) and converted into inhibition percentages. For IC50 determinations, the inhibitor was tested at 6 to 10 different concentrations, and the related inhibitions were fitted to a classical Langmuir equilibrium model using XLFIT (IDBS).

GmhA of E. coli, sequence (P63224 whole entry): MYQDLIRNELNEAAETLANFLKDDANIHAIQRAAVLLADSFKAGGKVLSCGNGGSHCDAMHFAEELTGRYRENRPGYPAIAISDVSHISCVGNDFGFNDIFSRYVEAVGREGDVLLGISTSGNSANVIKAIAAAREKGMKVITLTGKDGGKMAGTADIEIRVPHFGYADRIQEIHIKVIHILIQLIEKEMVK

Structure (SMILES)	IC50 [1]	IC50 [2]
CO[C@@H]1O[C@H]([C@H](O)COP(=O)(O)O)[C@@H](O)[C@H](O)[C@@H]1O [Example 3, 1-O-Methyl-D-glycero-β-D-manno-heptopyranose 7-phosphate]	< 100 µM	
O=P(O)(O)OC[C@@H](O)[C@H]1O[C@H](F)[C@@H](O)[C@@H](O)[C@@H]1O [Example 6, α-Fluoro 7-O-phosphoryl-D-glycero-α-D-manno-heptopyranoside]	< 100 µM	< 100 µM
CO[C@H]1OC([C@H](O)COP(=O)(O)O)[C@@H](O)C(O)C1O (stereo partly drawn) [Example 1, Methyl 7-O-phosphate-D-glycero-α-D-gluco-heptopyranoside]	< 100 µM	< 100 µM
CC1(O)OC(C(O)COP(=O)(O)O)C(O)C(O)C1O [Example 12, 1-C-Methyl 7-O-phosphoryl-D-glycero-α-D-manno-heptopyranose]	< 100 µM	< 100 µM
O=P(O)(O)OC[C@@H](O)[C@H]1O[C@@H](CO)[C@@H](O)[C@@H](O)[C@@H]1O [Example 11, 1-β-C-Hydroxymethylene 1-Deoxy-7-O-phosphoryl-D-glycero-D-manno-heptopyranose]	< 100 µM	< 100 µM
CCC[C@H]1O[C@H]([C@H](O)COP(=O)(O)O)[C@@H](O)[C@H](O)[C@@H]1O [Example 8, 1-Deoxy-1-propyl-D-glycero-α-D-manno-heptopyranose 7-phosphate]	< 100 µM	< 100 µM
O=P(O)(O)OC[C@@H](O)[C@H]1O[C@@](O)(CO)[C@@H](O)[C@@H](O)[C@@H]1O [Example 13, 1-C-Hydroxymethylene 7-O-phosphoryl-D-glycero-D-manno-heptopyranose]	< 100 µM	< 100 µM
